# In ChEMBL document CHEMBL5608182, “Synthesis and evaluation of neuroactive steroids with novel pharmacophore at C-21 let identify a compound with advantageous PK profile and higher EC50 and Emax as PAM on GABAA receptor” (Eur J Med Chem, 2024):
# Assays:
# Cytochrome P450 1A2 = molecular target: T1, Cytochrome P450 1A2 (Homo sapiens, UniProt P05177); test: Inhibition of CYP1A2 (unknown origin); format: ADME
# T1 sequence (P05177 whole entry): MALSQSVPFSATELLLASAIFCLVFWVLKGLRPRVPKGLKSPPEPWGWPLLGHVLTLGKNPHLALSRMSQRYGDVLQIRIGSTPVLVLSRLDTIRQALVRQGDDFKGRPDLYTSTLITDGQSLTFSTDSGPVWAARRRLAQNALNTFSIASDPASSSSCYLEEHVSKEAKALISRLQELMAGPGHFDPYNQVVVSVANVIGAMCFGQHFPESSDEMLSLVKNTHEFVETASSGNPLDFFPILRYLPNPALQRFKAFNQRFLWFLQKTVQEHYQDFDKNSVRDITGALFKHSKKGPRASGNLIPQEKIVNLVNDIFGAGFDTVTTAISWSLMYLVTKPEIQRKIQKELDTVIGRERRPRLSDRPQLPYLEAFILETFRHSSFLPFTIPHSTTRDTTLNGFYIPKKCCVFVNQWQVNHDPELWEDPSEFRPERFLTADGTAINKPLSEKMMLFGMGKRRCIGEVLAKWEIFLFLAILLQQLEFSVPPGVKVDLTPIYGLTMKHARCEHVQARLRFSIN
# [1] = Half life in male Sprague-Dawley rat at 6.1 micromol/kg, iv administered as single dose and measured upto 24 hrs by LC-MS/MS analysis; format: ADME, organism-based; conditions: in vivo, dose 6.1 µmol/kg
# [2] = Metabolic stability in human liver microsomes assessed as intrinsic clearance at 1 uM preincubated for 10 mins followed by NADPH addition by LC-MS analysis; format: ADME, Microsome; conditions: read-out: CLH
# [3] = Apparent volume of distribution in male Sprague-Dawley rat at 24.4 micromol/kg, IG administered as single dose and measured upto 24 hrs by LC-MS/MS analysis; format: ADME; conditions: in vivo, po, dose 24.4 µmol/kg
# [4] = Initial drug concentration in male Sprague-Dawley rat at 6.1 micromol/kg, iv administered as single dose and measured upto 24 hrs by LC-MS/MS analysis; format: ADME, organism-based; conditions: in vivo, dose 6.1 µmol/kg
# [5] = Drug concentration in Sprague-Dawley rat brain at 24.4 micromol/kg, IG measured after 6 hrs by LC-MS/MS analysis; format: ADME, tissue-based; conditions: in vivo, po, dose 24.4 µmol/kg
# [6] = molecular target: GABA-A receptor; alpha-1/beta-2/gamma-2 (Homo sapiens) (UniProt P14867+P47870+P18507); test: (§1) Positive allosteric modulation of synaptic alpha1beta2gamma2 GABA-A receptor (unknown origin) transfected in LTK cells assessed as potentiation of GABA-induced peak current amplitude by measuring maximal efficacy at 0.01 to 10 uM at -80 mV holding potential preincubated for 30 secs followed by GABA stimulation for 2 secs by Q-patch assay relative to control; format: cell-based; conditions: filed as positive allosteric modulator, dose 0.01-10 µM, time 32.0 sec
# [7] = AUClast in male Sprague-Dawley rat at 24.4 micromol/kg, IG administered as single dose and measured upto 24 hrs by LC-MS/MS analysis; format: ADME; conditions: in vivo, po, dose 24.4 µmol/kg
# Cytochrome P450 2D6 = Cytochrome P450 2D6 (Homo sapiens, UniProt P10635); test: Inhibition of CYP2D6 (unknown origin); format: ADME
# [8] = Metabolic stability in Sprague-Dawley rat liver microsomes assessed as intrinsic clearance at 1 uM preincubated for 10 mins followed by NADPH addition by LC-MS analysis; format: ADME, Microsome; conditions: read-out: CLH
# Cytochrome P450 2C9 = Cytochrome P450 2C9 (Homo sapiens, UniProt P11712); test: Inhibition of CYP2C9 (unknown origin); format: ADME
# [9] = Half life in male Sprague-Dawley rat at 24.4 micromol/kg, IG administered as single dose and measured upto 24 hrs by LC-MS/MS analysis; format: ADME; conditions: in vivo, po, dose 24.4 µmol/kg
# [10] = Tmax in male Sprague-Dawley rat at 24.4 micromol/kg, IG administered as single dose and measured upto 24 hrs by LC-MS/MS analysis; format: ADME; conditions: in vivo, po, dose 24.4 µmol/kg
# [11] = MRTlast in male Sprague-Dawley rat at 24.4 micromol/kg, IG administered as single dose and measured upto 24 hrs by LC-MS/MS analysis; format: ADME; conditions: in vivo, po, dose 24.4 µmol/kg
# [12] = Drug concentration in Sprague-Dawley rat brain at 24.4 micromol/kg, IG measured after 2 hrs by LC-MS/MS analysis; format: ADME, tissue-based; conditions: in vivo, po, dose 24.4 µmol/kg
# [13] = Metabolic stability in human liver microsomes assessed as compound remaining at 1 uM preincubated for 10 mins followed by NADPH addition by LC-MS analysis; format: ADME, Microsome; conditions: read-out: Stability
# [14] = MRTlast in male Sprague-Dawley rat at 6.1 micromol/kg, iv administered as single dose and measured upto 24 hrs by LC-MS/MS analysis; format: ADME, organism-based; conditions: in vivo, dose 6.1 µmol/kg
# [15] = AUClast in male Sprague-Dawley rat at 6.1 micromol/kg, iv administered as single dose and measured upto 24 hrs by LC-MS/MS analysis; format: ADME, organism-based; conditions: in vivo, dose 6.1 µmol/kg
# [16] = Drug concentration in Sprague-Dawley rat brain at 24.4 micromol/kg, IG measured after 0.5 hrs by LC-MS/MS analysis; format: ADME, tissue-based; conditions: in vivo, po, dose 24.4 µmol/kg
# [17] = Apparent volume of distribution in male Sprague-Dawley rat at 6.1 micromol/kg, iv administered as single dose and measured upto 24 hrs by LC-MS/MS analysis; format: ADME, organism-based; conditions: in vivo, dose 6.1 µmol/kg, read-out: Vz
# [18] = Bioavailability in male Sprague-Dawley rat at 24.4 micromol/kg, IG administered as single dose and measured upto 24 hrs by LC-MS/MS analysis; format: ADME, organism-based; conditions: in vivo, po, 24.4 µmol/kg
# [19] = Acid dissociation constant, pKa of the compound; format: physicochemical
# [20] = molecular target: Gamma-aminobutyric acid receptor subunit alpha-4/beta3/delta (Homo sapiens) (UniProt P28472+P48169+O14764); test: as §1, with “extrasynaptic alpha4beta3delta” for “synaptic alpha1beta2gamma2”, “CHO” for “LTK”, “manual patch” for “Q-patch”; format: cell-based; conditions: filed as positive allosteric modulator, dose 0.01-10 µM, time 32.0 sec
# [21] = Cmax in male Sprague-Dawley rat at 24.4 micromol/kg, IG administered as single dose and measured upto 24 hrs by LC-MS/MS analysis; format: ADME; conditions: in vivo, po, dose 24.4 µmol/kg
# [22] = molecular target: Gamma-aminobutyric acid receptor subunit alpha-4/beta3/delta (Homo sapiens, UniProt O14764+P28472+P48169); test: Positive allosteric modulation of extrasynaptic alpha4beta3delta GABA-A receptor (unknown origin) transfected in CHO cells assessed as potentiation of GABA-induced peak current amplitude at -80 mV holding potential preincubated for 30 secs followed by GABA stimulation for 2 secs by manual patch assay; format: cell-based
# [23] = Metabolic stability in Sprague-Dawley rat liver microsomes assessed as compound remaining at 1 uM preincubated for 10 mins followed by NADPH addition by LC-MS analysis; format: ADME, Microsome; conditions: read-out: Stability
# Cytochrome P450 3A4 = Cytochrome P450 3A4 (Homo sapiens, UniProt P08684); test: Inhibition of CYP3A4 (unknown origin); format: ADME
# Cytochrome P450 3A4, sequence (P08684 whole entry): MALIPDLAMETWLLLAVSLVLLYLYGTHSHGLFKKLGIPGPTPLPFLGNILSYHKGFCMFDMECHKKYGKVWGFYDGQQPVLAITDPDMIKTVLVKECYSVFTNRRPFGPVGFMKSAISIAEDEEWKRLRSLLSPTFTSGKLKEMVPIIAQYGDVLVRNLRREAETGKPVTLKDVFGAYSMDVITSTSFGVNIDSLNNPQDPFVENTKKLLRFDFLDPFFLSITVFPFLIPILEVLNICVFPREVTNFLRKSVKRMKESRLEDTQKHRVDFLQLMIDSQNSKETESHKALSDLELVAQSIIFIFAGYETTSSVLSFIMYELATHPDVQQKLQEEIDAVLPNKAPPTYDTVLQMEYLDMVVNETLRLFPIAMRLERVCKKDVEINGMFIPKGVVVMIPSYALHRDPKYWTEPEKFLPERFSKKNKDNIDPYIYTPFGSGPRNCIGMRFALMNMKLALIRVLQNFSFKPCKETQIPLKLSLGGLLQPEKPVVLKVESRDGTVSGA
# Gamma-aminobutyric acid receptor subunit alpha-4/beta3/delta, sequence (P28472 whole entry): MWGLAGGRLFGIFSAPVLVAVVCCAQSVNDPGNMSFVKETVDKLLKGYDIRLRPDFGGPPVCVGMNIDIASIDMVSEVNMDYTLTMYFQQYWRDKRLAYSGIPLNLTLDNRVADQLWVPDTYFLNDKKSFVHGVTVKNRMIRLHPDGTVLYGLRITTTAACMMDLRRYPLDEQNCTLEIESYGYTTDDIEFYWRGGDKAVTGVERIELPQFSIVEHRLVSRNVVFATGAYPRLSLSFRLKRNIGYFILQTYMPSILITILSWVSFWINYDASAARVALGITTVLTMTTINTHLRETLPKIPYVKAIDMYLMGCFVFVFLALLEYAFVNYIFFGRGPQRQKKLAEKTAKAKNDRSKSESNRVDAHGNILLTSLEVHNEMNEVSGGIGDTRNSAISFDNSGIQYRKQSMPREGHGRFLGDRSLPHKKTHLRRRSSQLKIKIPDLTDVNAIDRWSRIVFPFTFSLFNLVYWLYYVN
# Gamma-aminobutyric acid receptor subunit alpha-4/beta3/delta, sequence (P48169 whole entry): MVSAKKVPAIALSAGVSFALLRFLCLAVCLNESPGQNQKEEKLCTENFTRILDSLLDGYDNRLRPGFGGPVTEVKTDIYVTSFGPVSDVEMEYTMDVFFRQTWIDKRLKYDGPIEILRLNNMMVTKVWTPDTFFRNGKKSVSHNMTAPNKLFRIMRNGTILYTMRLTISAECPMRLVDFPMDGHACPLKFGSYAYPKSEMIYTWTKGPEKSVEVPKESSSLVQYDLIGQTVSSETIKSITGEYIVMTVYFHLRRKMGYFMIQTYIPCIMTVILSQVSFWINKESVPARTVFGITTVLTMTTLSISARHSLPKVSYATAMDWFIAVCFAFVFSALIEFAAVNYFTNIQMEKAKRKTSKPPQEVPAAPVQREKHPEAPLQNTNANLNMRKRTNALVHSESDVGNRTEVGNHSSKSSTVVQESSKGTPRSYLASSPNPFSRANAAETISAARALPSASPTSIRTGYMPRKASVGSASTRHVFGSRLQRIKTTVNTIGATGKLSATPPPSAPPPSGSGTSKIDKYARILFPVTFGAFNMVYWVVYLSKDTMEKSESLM
# Gamma-aminobutyric acid receptor subunit alpha-4/beta3/delta, sequence (O14764 whole entry): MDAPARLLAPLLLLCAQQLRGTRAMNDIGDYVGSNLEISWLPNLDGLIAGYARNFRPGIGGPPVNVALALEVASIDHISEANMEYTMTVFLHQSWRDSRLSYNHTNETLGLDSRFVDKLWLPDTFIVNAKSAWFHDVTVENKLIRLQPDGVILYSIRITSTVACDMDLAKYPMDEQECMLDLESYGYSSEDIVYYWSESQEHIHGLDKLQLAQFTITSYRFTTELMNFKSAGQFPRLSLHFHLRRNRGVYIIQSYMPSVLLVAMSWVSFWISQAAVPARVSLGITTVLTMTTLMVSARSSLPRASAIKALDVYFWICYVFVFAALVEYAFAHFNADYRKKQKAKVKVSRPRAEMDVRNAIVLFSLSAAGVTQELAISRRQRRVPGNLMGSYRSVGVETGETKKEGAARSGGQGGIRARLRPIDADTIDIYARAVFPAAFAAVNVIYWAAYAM
# Cytochrome P450 2C9, sequence (P11712 whole entry): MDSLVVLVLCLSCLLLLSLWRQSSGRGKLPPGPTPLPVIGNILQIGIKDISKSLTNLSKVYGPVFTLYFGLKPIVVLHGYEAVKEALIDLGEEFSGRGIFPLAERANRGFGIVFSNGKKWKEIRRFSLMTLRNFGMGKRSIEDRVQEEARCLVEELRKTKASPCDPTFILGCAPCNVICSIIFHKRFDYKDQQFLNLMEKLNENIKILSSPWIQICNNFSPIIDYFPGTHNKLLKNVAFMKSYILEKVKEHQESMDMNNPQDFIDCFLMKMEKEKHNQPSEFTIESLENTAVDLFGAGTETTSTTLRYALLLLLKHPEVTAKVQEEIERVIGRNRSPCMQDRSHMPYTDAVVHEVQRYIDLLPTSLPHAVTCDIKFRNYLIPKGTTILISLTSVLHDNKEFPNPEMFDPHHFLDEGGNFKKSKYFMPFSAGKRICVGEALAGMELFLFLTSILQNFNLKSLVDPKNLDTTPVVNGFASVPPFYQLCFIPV
# Cytochrome P450 2D6, sequence (P10635 whole entry): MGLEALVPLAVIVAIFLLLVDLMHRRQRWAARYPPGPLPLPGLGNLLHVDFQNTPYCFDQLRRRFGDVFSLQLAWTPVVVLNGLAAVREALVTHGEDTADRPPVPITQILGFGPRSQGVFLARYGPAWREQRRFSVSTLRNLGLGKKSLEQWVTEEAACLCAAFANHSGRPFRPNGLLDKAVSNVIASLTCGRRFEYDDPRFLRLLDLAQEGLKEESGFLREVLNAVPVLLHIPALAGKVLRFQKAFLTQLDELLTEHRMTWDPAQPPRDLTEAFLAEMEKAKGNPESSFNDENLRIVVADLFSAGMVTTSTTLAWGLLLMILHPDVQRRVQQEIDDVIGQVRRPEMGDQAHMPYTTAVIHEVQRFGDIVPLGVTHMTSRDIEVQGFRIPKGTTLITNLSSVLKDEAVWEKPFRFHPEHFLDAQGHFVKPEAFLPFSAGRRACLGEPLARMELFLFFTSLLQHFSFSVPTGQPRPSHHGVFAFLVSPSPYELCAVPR
structure (smiles),measurement,setting,value
C[C@@]1(O)CC[C@H]2[C@H](CC[C@@H]3[C@@H]2CC[C@]2(C)[C@@H](C(=O)Cn4cc(C#N)cn4)CC[C@@H]32)C1 [ZURANOLONE],IC50,Cytochrome P450 1A2,> 30 µM
same,half-life,[1],147 min
same,CLint scaled at 1 µM,[2],10.6 mL/min/kg
same,Vz,[3],10.54 L/kg
same,C0 at 24 h,[4],3440 nM
same,Ct,[5],193 nmol/kg
same,Emax,[6],980%
same,AUC(0-t) at 24 h,[7],12 µM·h
same,IC50,Cytochrome P450 2D6,> 30 µM
same,CLint scaled at 1 µM,[8],51.8 mL/min/kg
same,IC50,Cytochrome P450 2C9,> 30 µM
same,half-life,[9],228 min
same,Tmax,[10],1.17 h
same,MRT last at 24 h,[11],4.46 h
same,Ct,[12],2220 nmol/kg
same,remaining at 1 µM,[13],72%
same,MRT last at 24 h,[14],2.12 h
same,AUC(0-t) at 24 h,[15],5.21 µM·h
same,Ct,[16],3103 nmol/kg
same,Vd,[17],4.66 L/kg
same,bioavailability,[18],57.7%
same,pKa,[19],> 12
same,Emax,[20],1040%
same,Cmax,[21],2290 nM
same,EC50,[22],135 nM
same,remaining at 1 µM,[23],40%
same,IC50,Cytochrome P450 3A4,> 30 µM
C[C@@]1(O)CC[C@H]2[C@H](CC[C@@H]3[C@@H]2CC[C@]2(C)[C@@H](C(=O)Cn4cnn(-c5cc(F)nc(F)c5)c4=O)CC[C@@H]32)C1,IC50,Cytochrome P450 1A2,> 30 µM
same,half-life,[1],312 min
same,CLint scaled at 1 µM,[2],< 6.75 mL/min/kg
same,Vz,[3],8.86 L/kg
same,C0 at 24 h,[4],1870 nM
same,Ct,[5],2339 nmol/kg
same,Emax,[6],675%
same,AUC(0-t) at 24 h,[7],24 µM·h
same,IC50,Cytochrome P450 2D6,> 30 µM
same,CLint scaled at 1 µM,[8],23 mL/min/kg
same,IC50,Cytochrome P450 2C9,> 30 µM
same,half-life,[9],395 min
same,Tmax,[10],2.01 h
same,MRT last at 24 h,[11],7.74 h
same,Ct,[12],3404 nmol/kg
same,remaining at 1 µM,[13],98%
same,MRT last at 24 h,[14],4.75 h
same,AUC(0-t) at 24 h,[15],6.03 µM·h
same,Ct,[16],2320 nmol/kg
same,Vd,[17],7.38 L/kg
same,bioavailability,[18],99.6%
same,pKa,[19],> 12
same,Emax,[20],1070%
same,Cmax,[21],2530 nM
same,EC50,[22],75 nM
same,remaining at 1 µM,[23],68%
same,IC50,Cytochrome P450 3A4,> 30 µM
